Data reported in US11752111B2, “Use of cannabidivarin in the treatment of autism spectrum disorder, associated disorders and schizophrenia” (GW Research Limited, priority 2016, dated 2023).

Tested on: Ube3am-/p+ (AS) mice
Experiment: Novel object recognition in Angelman syndrome model
Format: in vivo, mouse
Settings: CBDV 20 mg/kg i.p.; AS mice at 7-8 weeks vs AS vehicle
Method: Heterozygous mice with maternal deficiency of Ube3A (Ube3am−/p+) and wild type (Ube3am+/p+) were purchased from The Jackson Laboratory (Jackson code: B6.129S7-Ube3a tm1Alb/J) and maintained in a C57BL/6 background.
Drugs were dissolved in 1:1:18 ethanol:cremophor:0.9% saline, for intraperitoneal (i.p.) administration. Drug treatment was performed daily for 35 days. CBDV was administered at 20 mg/kg.
Novel Object Recognition: The novel object recognition assesses recognition memory in mice. The experiment started with the habituation period, during which mice were allowed to freely explore for 1 hour the apparatus which consists of a rectangular open box (40×30×30 cm width×length×height) made of grey polyvinyl chloride (PVC) illuminated by a dim light. The day after each mouse was allowed to explore two identical objects positioned in the back left and right corners for 5 min (acquisition). A video camera recorded the time spent on exploration of each object. […] The behaviour of mice was analyzed by an observer blind to the treatment. Data are expressed as percentage of recognition index (RI %), which was calculated as the percentage of the time spent exploring the novel object/time spent exploring the novel object+time spent exploring the familiar object×100.

C=C(C)[C@@H]1CCC(C)=C[C@H]1c1c(O)cc(CCC)cc1O [CBDV, Cannabidivarin]
discrimination index, novel object recognition (FIG. 13): significantly increased the discrimination index
